“And” between values parts separate entries of the source, which are not always exact repeats. Identical values can stand only once. “Also recorded” adds a separate entry of the source.
Key:
[1] = cited from earlier work; for hepatic damage: long term use
C57BL/6 mice [2] = assay: LPS-mediated sepsis: cardiac function by 2D echocardiography (fractional shortening); format: in vivo
Description: (§1) LPS (5 mg/kg) (Sigma) was administered intraperitoneally (i.p.) in mice. Control mice were treated with equal volume of saline. Cardiac function was assessed by 2D echocardiography 5-6 hours post-LPS administration and mice were sacrificed 2-3 hours later (7-9 hours post-LPS injection).
(§2) Two-dimensional echocardiography was performed on conscious 10 to 12 week-old male and female (n=5-8 per group) mice (Sonos5500 system; Philips Medical Systems).^129Echocardiographic images were recorded in a digital format. Images were then analyzed off-line by a single observer blinded to the murine genotype.^130

C57BL/6 mice [3] = assay: Assessment of survival after lethal dose of LPS; format: in vivo
From the text: Control animals received saline and DMSO instead of LPS and rosiglitazone, respectively.

patients = details: human, in vivo, 3 mg/kg/day; cited from earlier work
[4] = test system: cardiac muscle of C57BL/6 mice; assay: FA oxidation ([3H]palmitate oxidation) in heart pieces; format: in vivo; details: LPS 5 mg/kg, 6-8 h
Description: as §1

hearts of C57BL/6 mice [5] = assay: Cardiac mRNA levels by quantitative real-time PCR after LPS; format: in vivo; details: LPS 5 mg/kg, 6-8 h
αMHC-PPARγ mice = assay: LPS in αMHC-PPARγ mice: 2D echocardiography (fractional shortening); format: in vivo; details: LPS-treated αMHC-PPARγ mice
Description: (§3) All procedures involving animals were approved by the Institutional Animal Care and Use Committee at Columbia University. Mice were maintained under appropriate barrier conditions in a 12 hr light-dark cycle and received food and water ad libitum. The animals that were used for this study were C57BL/6 mice and mice expressing specifically in cardiomyocytes peroxisome proliferator activating receptor-γ (αMHC-PPARγ) that are also on the C57BL/6 background. All studies were performed on the different genotypes with littermates as controls. Hearts from these mice were harvested, flash frozen and stored at −80° C. until further use. All analyses involving animals were performed with at least 5 mice per experimental group.
as §1, §2

[6] = test system: hearts of αMHC-PPARγ mice; assay: Cardiac ATP levels in αMHC-PPARγ mice; format: in vivo; details: LPS-treated αMHC-PPARγ mice
Description: as §1
Cardiac pieces of 10 mg were used to determine ATP levels. Heart pieces were dissolved in ice-cold 0.1% trichloro-acetic acid and centrifuged. Supernatant was resuspended in 50 mM Tris-acetate containing 2 mM EDTA, pH 7.8 and a portion was used to measure ATP. The measurement was performed with the ATP determination kit (Invitrogen) according to the instructions of the manufacturer.

[7] = test system: cardiac muscle of αMHC-PPARγ mice; assay: [3H]palmitic acid oxidation in cardiac muscle of αMHC-PPARγ mice; format: in vivo; details: LPS-treated vs saline-treated αMHC-PPARγ mice
Description: as §1
FA oxidation was measured in pieces of hearts isolated from 10-12 week old mice. The heart pieces were incubated at 37° C. for 2 h in modified Krebs-Ringerbuffer (MKR: 115 mM NaCl, 2.6 mM KCl, 1.2 mM KH2PO4, 10 mM NaHCO3,10 mM HEPES, pH 7.4) that contained 2% BSA, […] palmitate and 10 μCi/ml 9,10(n)-[^3H]-palmitate and was gassed with 95% O2 and 5% CO2. Water was then extracted with chloroform:methanol (2:1) extraction. Palmitate oxidation was determined by measuring the amount of ^3H2O in the aqueous phase.

[8] = test system: hearts of αMHC-PPARγ mice; assay: Western blot of pAMPK and pJNK in hearts of αMHC-PPARγ mice; format: in vivo
Description: as §1
(§4) Isolated heart tissues or cells were homogenized in PBS containing protease inhibitors and phosphatase inhibitors (Roche, Indianapolis, Ind.). Membrane and cytosolic fractions were separated by ultracentrifugation.20 μg from each fraction was applied to SDS-PAGE and transferred onto nitrocellulose membranes. Antibodies were obtained from Santa Cruz (JNK) and Cell Signaling (phospho-JNK, phospho-AMPK^Thr 172 and total AMPK).

[9] = test system: cardiac RNA from LPS-treated mice; assay: MiR array analysis of cardiac RNA; format: in vivo
From the text: The next experiment assessed whether the cardiac miR (microRNA) profiles of LPS-treated mice resemble the respective profiles in heart failure. (FIG. 5(A)-(C)).

[10] = test system: hearts of αMHC-PPARγ mice; assay: Cardiac mRNA levels in LPS-treated αMHC-PPARγ mice; format: in vivo
Description: as §3, §1
(§5) Total RNA was purified from cells or hearts using the TRIzol reagent according to the instructions of themanufacturer (Invitrogen). cDNA was synthesized using the SuperScript III First-Strand Synthesis SuperMix (Invitrogen). cDNA was analyzed with quantitative real-time PCR that was performed with SYBR Green PCRCore Reagents (Stratagene). Incorporation of the SYBRgreen dye into the PCR products was monitored in real time withan Mx3000 sequence detection system (Stratagene). Samples were normalized against β-actin.

[11] = test system: cardiac tissue from C57BL/6 mice; assay: Electron microscopy of cardiac mitochondria; format: in vivo; details: LPS vs saline
From the text: Left ventricles from 3-month-old mice were fixed with 2.5% glutaraldehyde in 0.1 M Sorensen's buffer (0.2 M monobasic phosphate/0.2 M dibasic phosphate, 1:4 vol/vol; pH 7.2), postfixed in osmium tetroxide, and embedded in EPON 812 (Electron Microscopy Sciences). Ultrathin sections were stained with uranyl acetate and lead citrate and examined under a JEM-1200ExII electron microscope (JEOL).

AC16 cells = assay: PPARα gene expression in LPS-treated human cardiomyocyte cell line; format: cell-based; details: LPS treatment alone
From the text: A human ventricular cardiomyocyte-derived cell line, designated AC-16, was kindly provided by M. M. Davidson.^126 Cells were maintained in Dulbecco's Modified Eagle Medium: Nutrient Mixture F-12 (Ham) (DMEM:F12) (Invitrogen) supplemented with fetal bovine serum (10%) and a mixture of penicillin and streptomycin (1%). Prior to infection with recombinant adenoviruses the medium was changed to 2% heat inactivated horse serum and the cells were infected in at least duplicates with control adenovirus that expresses the Green Fluorescent Protein (Ad-GFP) or the adenovirus expressing the constitutively active form of JNK2 (Ad-JNK2α2) at a multiplicity of infection (MOI) of 10. […] To assess gene expression 48 hours post incubation, cell lysates were collected and analyzed for mRNA and protein expression.
as §5, with “Samples were normalized against β-actin.” left out

hearts of C57BL/6 mice [12] = assay: Western blot of pJNK, p-cJun and pAMPK in hearts; format: in vivo; details: LPS 5 mg/kg; controls (label LPS) or animals given rosiglitazone 35 mg/kg (label rosiglitazone)
Description: as §1, §4

hearts of C57BL/6 mice [13] = assay: Cardiac ATP measurement; format: in vivo; details: LPS 5 mg/kg, 6-8 h
Description: as §1

hearts of C57BL/6 mice [14] = assay: Cardiac mRNA levels by quantitative real-time PCR after LPS; format: in vivo
Description: as §1, §5

C57BL6 mice = assay: Plasma IL-6 protein levels after LPS; format: in vivo; details: LPS 5 mg/kg, 6-8 h
Description: An animal model of cardiac septic shock was reproduced by treating 10 week old C57BL6 mice with LPS (5 mg/kg of body) for 6-8 h.

[15] = LPS 15 mg/kg, + DMSO (15 mice, F) or + rosiglitazone 33 mg/kg/day (17 mice, M)
[16] = Saline (no LPS) + rosiglitazone 33 mg/kg/day, 8 mice, M

CCc1ccc(CCOc2ccc(CC3SC(=O)NC3=O)cc2)nc1 (stereo not shown) [Pioglitazone, pioglitazone]
deleterious effects on blood lipids ([1]; in vivo): fewer deleterious effects on blood lipids

Cc1cccc(Nc2cc(Cl)nc(SCC(=O)O)n2)c1C [WY-14643]
improved fractional shortening by (C57BL/6 mice [2]; LPS 5 mg/kg + WY-14643 30 mg/kg, trend, p=0.09): 25%

CN(CCOc1ccc(CC2SC(=O)NC2=O)cc1)c1ccccn1 (stereo not shown) [rosiglitazone]
hepatic damage [1]: cause hepatic damage with long term use | Survivors 24 h (C57BL/6 mice [3]; [15]): 17 | Survivors 36 h (C57BL/6 mice [3]; [15]): 16 | Survivors 48 h (C57BL/6 mice [3]; [15]): 16 | Survivors 60 h (C57BL/6 mice [3]; [15]): 15 | Survivors 72 h (C57BL/6 mice [3]; [15]): 13 | Survivors 24 h (C57BL/6 mice [3]; [16]): 8 | Survivors 36 h (C57BL/6 mice [3]; [16]): 8 | Survivors 48 h (C57BL/6 mice [3]; [16]): 8 | Survivors 60 h (C57BL/6 mice [3]; [16]): 8 | Survivors 72 h (C57BL/6 mice [3]; [16]): 8

Cc1c(C)c2c(c(C)c1O)CCC(C)(COc1ccc(CC3SC(=O)NC3=O)cc1)O2 (stereo not shown) [troglitazone]
hepatic damage [1]: cause hepatic damage with long term use

Oblimersen
adverse effects in patients (patients): no severe adverse effects

lipopolysaccharide [LPS]
reduction in fractional shortening (C57BL/6 mice [2]; LPS 5 mg/kg alone vs saline, 2D-echocardiography): 50% | fractional shortening, effect of LPS (C57BL/6 mice [2]; LPS 5 mg/kg of body, 6-8 h, 10 week old mice): reduced fractional shortening | FAO, reduced by [4]: 61% | cardiac gene expression of inflammation-associated genes (IL-1α, IL-6 and TNFα) (hearts of C57BL/6 mice [5]): increased | mRNA levels for cardiac PPARα, CD36, LpL, FATP, Cpt1β, PGC-1α and PGC-1β (hearts of C57BL/6 mice [5]): reduced | fractional shortening / cardiac function (αMHC-PPARγ mice): remained normal; also recorded: preserved | cardiac ATP content [6]: significantly increased | cardiac ATP levels, increase [6]: 2.2 fold | levels of FAO, increase [7]: 2.6 fold | JNK activation ([8]; LPS 5 mg/kg, αMHC-PPARγ mice): activated JNK | phosphorylated AMPK levels ([8]; LPS-treated αMHC-PPARγ mice): reduced | miRs associated with heart failure (miR-1, -133, -208, -195, -24, -125b, -199a, 214) affected [9]: none | UCP2 mRNA increase ([10]; LPS): 23.7 fold | UCP3 mRNA increase ([10]; LPS): 17.4 fold | PDK4 mRNA increase ([10]; LPS 5 mg/kg): 5.4 fold | cardiac CD36 gene expression, reduced by ([10]; LPS 5 mg/kg): 93% | cardiac IL-1α mRNA increase ([10]; LPS 5 mg/kg): 23.1 fold and 23 fold | cardiac IL-6 mRNA increase ([10]; LPS 5 mg/kg): 288 fold and 285 fold | cardiac PGC-1β gene expression, reduced by ([10]; LPS 5 mg/kg): 76% | cardiac TNFα mRNA increase ([10]; LPS 5 mg/kg): 12.5 fold | estrogen-related receptor (ERR)α mRNA ([10]; LPS 5 mg/kg): not modulated | perilipin 2 mRNA ([10]; LPS 5 mg/kg): not modulated | perilipin 5 mRNA, reduced by ([10]; LPS 5 mg/kg): 50% | AOX mRNA increase ([10]; LPS 5 mg/kg vs saline): 27.1 fold | Cpt1β mRNA increase ([10]; LPS 5 mg/kg vs saline): 14.3 fold | PGC-1α mRNA increase ([10]; LPS 5 mg/kg vs saline): 30.1 fold | PPARγ mRNA increase ([10]; LPS 5 mg/kg vs saline): 31.6 fold | PPARδ mRNA increase ([10]; LPS 5 mg/kg vs saline): 31.6 fold | cardiac PPARα mRNA reduction ([10]; LPS 5 mg/kg vs saline): 77% and 78% | morphology and intracellular arrangement of mitochondria [11]: did not affect | PPARα expression in human cardiomyocyte cell line (AC16 cells): reduces PPARα expression | phospho-AMPK in heart after LPS (hearts of C57BL/6 mice [12]): not stimulated; also recorded: reduced phospho-AMPK | phosphorylation/activation of JNK (and c-Jun) in heart after LPS (hearts of C57BL/6 mice [12]): induced phosphorylation of JNK; also recorded: activated | cardiac ATP, reduced by (hearts of C57BL/6 mice [13]): 44% | PDK4 mRNA increase (hearts of C57BL/6 mice [14]; LPS 5 mg/kg alone): 16 fold | cardiac AOX mRNA, increased by (hearts of C57BL/6 mice [14]; LPS 5 mg/kg alone): 42% | cardiac PPARα mRNA levels, reduced by (hearts of C57BL/6 mice [14]; LPS 5 mg/kg alone): 78% | cardiac perilipin 2 mRNA, increased by (hearts of C57BL/6 mice [14]; LPS 5 mg/kg alone): 3.3 | cardiac IL-1α mRNA increase (hearts of C57BL/6 mice [14]; LPS 5 mg/kg alone, qRT-PCR): 90 fold | cardiac IL-6 mRNA increase (hearts of C57BL/6 mice [14]; LPS 5 mg/kg alone, qRT-PCR): 1250 fold | cardiac TNFα mRNA increase (hearts of C57BL/6 mice [14]; LPS 5 mg/kg alone, qRT-PCR): 26 fold | cardiac PPARγ (mRNA) levels, increased by (hearts of C57BL/6 mice [14]; LPS alone, normal C57BL/6 mice): ~60% and 57% | gene expression levels of αMHC and βMHC (hearts of C57BL/6 mice [14]; LPS, hearts of C57BL/6 mice): reduces both αMHC and βMHC | switch from α-MHC isoform to β-MHC (cardiac mRNA) (hearts of C57BL/6 mice [14]; LPS-treated mice): did not indicate such change | cardiac PPARδ mRNA (hearts of C57BL/6 mice [14]; any of the treatment groups (rosiglitazone 35 mg/kg, LPS 5 mg/kg, both)): not modulated | Survivors 24 h (C57BL/6 mice [3]; [15]): 14 | Survivors 36 h (C57BL/6 mice [3]; [15]): 14 | Survivors 48 h (C57BL/6 mice [3]; [15]): 10 | Survivors 60 h (C57BL/6 mice [3]; [15]): 5 | Survivors 72 h (C57BL/6 mice [3]; [15]): 2 | start of dying post-injection (C57BL/6 mice [3]; LPS alone 15 mg/kg i.p.): 36 h | plasma IL-6 protein levels (C57BL6 mice): increased
